Key:
Assay in all cases: relative viability (nuclei count vs DMSO), 5 days (fraction); higher = more cells survive
BEN = tested on: BEN
Procedure, shortened: (§1)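 Each reported value is a median over duplicate plates. It expresses relative viability: treated-well nuclei count divided by vehicle-well nuclei count. Lung cancer cell lines in 1536-well plates were dosed by pin tool a day after seeding, alone with one drug or with a fixed anchor-drug dose plus five library-drug doses (not always all listed) in √10 steps, and nuclei were counted after 5 days.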

EMC-BAC-2 = tested on: EMC-BAC-2
Procedure, shortened: as §1

HCC-15 = tested on: HCC-15
Procedure, shortened: as §1

HCC-44 = tested on: HCC-44
Procedure, shortened: as §1

HOP-62 = tested on: HOP-62
Procedure, shortened: as §1

LC-2-ad = tested on: LC-2-ad
Procedure, shortened: as §1

LU99A = tested on: LU99A
Procedure, shortened: as §1

NCI-H1395 = tested on: NCI-H1395
Procedure, shortened: as §1

NCI-H1437 = tested on: NCI-H1437
Procedure, shortened: as §1

NCI-H1734 = tested on: NCI-H1734
Procedure, shortened: as §1

NCI-H1755 = tested on: NCI-H1755
Procedure, shortened: as §1

Which results are given for `Cc1csc(=NC2CCCCC2)n1/N=C/c1ccc(O)c(O)c1O` [MIM1] + O=C(c1cc(Cc2n[nH]c(=O)c3ccccc23)ccc1F)N1CCN(C(=O)C2CC2)CC1 [Olaparib] (partner 8 µM)?
relative viability (BEN; first compound 0.2 µM): 1.07; relative viability (BEN; first compound 0.6325 µM): 1.18; relative viability (BEN; first compound 2 µM): 1.09; relative viability (BEN; first compound 6.325 µM): 1.01; relative viability (BEN; first compound 20 µM): 0.239; relative viability (EMC-BAC-2; first compound 0.2 µM): 0.494; relative viability (EMC-BAC-2; first compound 2 µM): 0.433; relative viability (EMC-BAC-2; first compound 6.325 µM): 0.378; relative viability (EMC-BAC-2; first compound 20 µM): 0.212; relative viability (HCC-15; first compound 0.2 µM): 0.717; relative viability (HCC-15; first compound 0.6325 µM): 0.713; relative viability (HCC-15; first compound 2 µM): 0.749; relative viability (HCC-15; first compound 6.325 µM): 0.39; relative viability (HCC-15; first compound 20 µM): 0.115; relative viability (HCC-44; first compound 0.2 µM): 1.02; relative viability (HCC-44; first compound 0.6325 µM): 0.975; relative viability (HCC-44; first compound 2 µM): 0.859; relative viability (HCC-44; first compound 6.325 µM): 0.675; relative viability (HCC-44; first compound 20 µM): 0.455; relative viability (HOP-62; first compound 0.2 µM): 0.424; relative viability (HOP-62; first compound 0.6325 µM): 0.529; relative viability (HOP-62; first compound 2 µM): 0.169; relative viability (HOP-62; first compound 6.325 µM): 0.293; relative viability (HOP-62; first compound 20 µM): 0.115; relative viability (LC-2-ad; first compound 0.2 µM): 0.616; relative viability (LC-2-ad; first compound 0.6325 µM): 0.683; relative viability (LC-2-ad; first compound 2 µM): 0.665; relative viability (LC-2-ad; first compound 6.325 µM): 0.303; relative viability (LC-2-ad; first compound 20 µM): 0.211; relative viability (LU99A; first compound 0.2 µM): 0.298; relative viability (LU99A; first compound 0.6325 µM): 0.246; relative viability (LU99A; first compound 2 µM): 0.207; relative viability (LU99A; first compound 6.325 µM): 0.272; relative viability (LU99A; first compound 20 µM): 0.125; relative viability (NCI-H1395; first compound 0.2 µM): 0.454; relative viability (NCI-H1395; first compound 0.6325 µM): 0.485; relative viability (NCI-H1395; first compound 2 µM): 0.414; relative viability (NCI-H1395; first compound 6.325 µM): 0.436; relative viability (NCI-H1395; first compound 20 µM): 0.346; relative viability (NCI-H1437; first compound 0.2 µM): 0.615; relative viability (NCI-H1437; first compound 0.6325 µM): 0.644; relative viability (NCI-H1437; first compound 2 µM): 0.58; relative viability (NCI-H1437; first compound 6.325 µM): 0.192; relative viability (NCI-H1437; first compound 20 µM): 0.206; relative viability (NCI-H1734; first compound 0.2 µM): 0.58; relative viability (NCI-H1734; first compound 0.6325 µM): 0.632; relative viability (NCI-H1734; first compound 2 µM): 0.559; relative viability (NCI-H1734; first compound 6.325 µM): 0.496; relative viability (NCI-H1734; first compound 20 µM): 0.132; relative viability (NCI-H1755; first compound 0.2 µM): 0.857; relative viability (NCI-H1755; first compound 0.6325 µM): 0.84; relative viability (NCI-H1755; first compound 2 µM): 0.94

— the supplement of paper PMC10307832
